We go through twelve compounds from patent US20260092071A1, “COMPOUNDS AND COMPOSITIONS AS SMARCA2/4 DEGRADERS AND USES THEREOF” (REGENTS OF THE UNIVERSITY OF MICHIGAN, priority 2022, published 2026).

For experiment [1], the target named is SMARCA4 (Homo sapiens, UniProt P51532). The experiment can be described thus: HiBit assay in engineered HT1080 CRISPR knock-in cell, 6 hrs (B series), SMARCA4. The experiment is classed as cell-based. The settings on record: 6 hrs incubation; for DC50 / SMARC A4 HT1080 HiBit Dmax(%): HT1080 CRISPR knock-in cells; for DC50: read-out: SMARC A4 HT1080 HiBit DC50; for Dmax: HT-1080, HT1080 CRISPR knock-in cells, read-out: SMARC A4 HT1080 HiBit Dmax(%). A digest of the protocol:
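Protein abundance is measured in HiBiT-tagged HT1080 CRISPR knock-in cells after a 6 hr compound treatment (0.1% DMSO) by lytic Nano-Glo HiBiT luminescence.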
In general terms: With HiBiT, luminescence reflects the tagged protein that the partner subunit can reach.

The target of experiment [2] is SMARCA2 (Homo sapiens, UniProt P51531). Put plainly: HiBit assay in engineered HT1080 CRISPR knock-in cell, 6 hrs (B series), SMARCA2. To be noted: 6 hrs incubation; for DC50 / SMARC A2 HT1080 HiBit Dmax (%): HT1080 CRISPR knock-in cells; for DC50: read-out: SMARC A2 HT1080 HiBit DC50; for Dmax: HT-1080, HT1080 CRISPR knock-in cells, read-out: SMARC A2 HT1080 HiBit Dmax (%). The format is cell-based. A digest of the protocol:
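Remaining SMARCA2 protein measured as HiBiT luminescence after cell lysis with LgBiT plus lytic substrate. Engineered HT1080 knock-in cells (2000/well) were first treated 6 h at 37 °C with compound at a final 0.1% DMSO.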

SMARCA2, sequence (P51531 whole entry): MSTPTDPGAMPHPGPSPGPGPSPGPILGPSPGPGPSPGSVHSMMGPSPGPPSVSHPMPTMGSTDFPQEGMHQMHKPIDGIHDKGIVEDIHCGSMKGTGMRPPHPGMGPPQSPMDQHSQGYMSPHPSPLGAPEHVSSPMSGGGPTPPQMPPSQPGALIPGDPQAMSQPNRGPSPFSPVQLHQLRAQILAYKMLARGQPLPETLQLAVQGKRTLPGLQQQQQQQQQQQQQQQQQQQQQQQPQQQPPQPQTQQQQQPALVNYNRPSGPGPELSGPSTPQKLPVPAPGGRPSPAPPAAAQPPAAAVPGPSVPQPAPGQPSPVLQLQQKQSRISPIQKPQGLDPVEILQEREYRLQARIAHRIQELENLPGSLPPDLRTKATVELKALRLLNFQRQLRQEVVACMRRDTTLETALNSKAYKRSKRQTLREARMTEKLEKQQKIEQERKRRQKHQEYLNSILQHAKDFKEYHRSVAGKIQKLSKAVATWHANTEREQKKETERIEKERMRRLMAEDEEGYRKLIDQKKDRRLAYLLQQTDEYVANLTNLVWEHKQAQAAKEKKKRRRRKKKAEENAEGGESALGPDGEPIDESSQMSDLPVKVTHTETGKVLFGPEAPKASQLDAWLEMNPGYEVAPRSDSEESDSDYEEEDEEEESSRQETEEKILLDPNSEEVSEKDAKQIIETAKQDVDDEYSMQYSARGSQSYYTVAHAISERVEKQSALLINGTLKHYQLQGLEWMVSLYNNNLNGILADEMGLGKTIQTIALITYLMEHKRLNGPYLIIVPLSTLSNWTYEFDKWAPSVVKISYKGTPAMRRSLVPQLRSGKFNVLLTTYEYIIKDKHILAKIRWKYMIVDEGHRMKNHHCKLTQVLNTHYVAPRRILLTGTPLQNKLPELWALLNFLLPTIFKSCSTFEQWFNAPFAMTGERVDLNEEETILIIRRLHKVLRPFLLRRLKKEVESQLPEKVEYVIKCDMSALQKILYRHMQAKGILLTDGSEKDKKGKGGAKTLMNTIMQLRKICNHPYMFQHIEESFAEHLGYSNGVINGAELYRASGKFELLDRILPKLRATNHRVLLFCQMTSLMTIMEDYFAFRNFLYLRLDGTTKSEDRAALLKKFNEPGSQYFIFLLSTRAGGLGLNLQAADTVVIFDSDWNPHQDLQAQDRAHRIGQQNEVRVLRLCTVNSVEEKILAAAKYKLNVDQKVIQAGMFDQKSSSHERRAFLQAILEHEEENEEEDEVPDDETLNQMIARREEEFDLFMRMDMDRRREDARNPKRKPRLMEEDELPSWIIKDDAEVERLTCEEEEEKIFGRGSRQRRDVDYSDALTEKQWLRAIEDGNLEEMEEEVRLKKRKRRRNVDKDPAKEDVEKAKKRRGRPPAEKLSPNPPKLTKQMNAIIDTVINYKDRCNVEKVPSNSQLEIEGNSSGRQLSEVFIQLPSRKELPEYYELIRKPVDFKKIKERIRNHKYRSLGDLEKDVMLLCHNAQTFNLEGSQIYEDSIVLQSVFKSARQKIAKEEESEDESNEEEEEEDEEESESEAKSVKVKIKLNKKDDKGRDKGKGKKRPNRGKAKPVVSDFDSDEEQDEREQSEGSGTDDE
SMARCA4, sequence (P51532 whole entry): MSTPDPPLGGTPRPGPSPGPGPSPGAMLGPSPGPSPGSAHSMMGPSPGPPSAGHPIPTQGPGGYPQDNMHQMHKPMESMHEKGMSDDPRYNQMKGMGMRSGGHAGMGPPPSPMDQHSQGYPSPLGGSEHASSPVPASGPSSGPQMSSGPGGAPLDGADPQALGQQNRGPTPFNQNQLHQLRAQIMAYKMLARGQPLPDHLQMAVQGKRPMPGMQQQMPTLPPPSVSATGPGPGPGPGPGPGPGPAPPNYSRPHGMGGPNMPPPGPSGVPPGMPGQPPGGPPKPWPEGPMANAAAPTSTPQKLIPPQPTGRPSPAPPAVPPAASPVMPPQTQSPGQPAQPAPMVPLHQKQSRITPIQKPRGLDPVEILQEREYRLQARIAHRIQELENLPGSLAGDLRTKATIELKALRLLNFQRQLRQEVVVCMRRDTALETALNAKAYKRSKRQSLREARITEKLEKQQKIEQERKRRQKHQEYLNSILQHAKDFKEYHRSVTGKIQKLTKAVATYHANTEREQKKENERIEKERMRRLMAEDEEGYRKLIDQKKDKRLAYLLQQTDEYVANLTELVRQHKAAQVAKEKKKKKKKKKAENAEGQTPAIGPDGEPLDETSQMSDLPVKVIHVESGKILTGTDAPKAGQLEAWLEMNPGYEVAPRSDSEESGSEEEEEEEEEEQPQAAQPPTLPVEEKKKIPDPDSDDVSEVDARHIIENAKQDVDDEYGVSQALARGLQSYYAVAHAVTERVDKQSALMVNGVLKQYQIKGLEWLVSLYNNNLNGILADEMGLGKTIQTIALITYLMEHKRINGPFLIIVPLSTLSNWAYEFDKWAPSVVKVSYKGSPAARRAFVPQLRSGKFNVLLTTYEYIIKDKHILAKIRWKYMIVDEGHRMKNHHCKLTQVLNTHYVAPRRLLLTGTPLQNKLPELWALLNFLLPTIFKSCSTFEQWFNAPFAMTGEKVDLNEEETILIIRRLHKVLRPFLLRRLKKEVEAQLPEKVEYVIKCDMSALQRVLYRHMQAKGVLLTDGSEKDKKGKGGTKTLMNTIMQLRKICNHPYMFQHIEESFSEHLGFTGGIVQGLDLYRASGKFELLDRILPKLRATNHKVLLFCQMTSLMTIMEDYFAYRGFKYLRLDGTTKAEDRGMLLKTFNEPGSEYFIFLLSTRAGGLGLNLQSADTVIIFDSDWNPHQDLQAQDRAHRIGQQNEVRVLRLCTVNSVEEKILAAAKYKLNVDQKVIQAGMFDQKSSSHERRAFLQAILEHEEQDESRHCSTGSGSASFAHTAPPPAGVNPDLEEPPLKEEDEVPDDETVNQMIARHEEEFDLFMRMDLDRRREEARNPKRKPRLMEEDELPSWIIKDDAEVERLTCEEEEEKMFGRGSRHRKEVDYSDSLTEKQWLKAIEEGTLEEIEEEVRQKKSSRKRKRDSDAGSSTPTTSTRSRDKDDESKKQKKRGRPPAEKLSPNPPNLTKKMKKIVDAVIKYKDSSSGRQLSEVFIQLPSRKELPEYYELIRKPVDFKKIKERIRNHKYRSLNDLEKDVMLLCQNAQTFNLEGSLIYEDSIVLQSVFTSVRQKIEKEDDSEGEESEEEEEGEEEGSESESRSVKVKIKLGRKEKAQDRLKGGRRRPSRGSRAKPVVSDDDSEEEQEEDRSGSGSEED

In the case of `Cc1ncsc1-c1ccc([C@H](C)NC(=O)[C@@H]2C[C@@H](O)CN2C(=O)[C@H](c2cc(N3CCC(C(=O)N4CCC(c5ccc6c(c5)C(C)(C)c5nc(=O)c7c(Cl)cccc7n5-6)CC4)CC3)no2)C(C)C)cc1` [Compound B89, (2S,4R)-1-(2-(3-(4-(4-(4-chloro-7,7-dimethyl-5-oxo-5,7-dihydroindolo[1,2-a]quinazolin-9-yl)piperidine-1-carbonyl)piperidin-1-yl)isoxazol-5-yl)-3-methylbutanoyl)-4-hydroxy-N—((S)-1-(4-(4-methylthiazol-5-yl)phenyl)ethyl)pyrrolidine-2-carboxamide], the DC50 in experiment [1] was 100 to 500 nM; in experiment [2] it was under 100 nM. In addition, the Dmax in experiment [1] and in experiment [2] was over 90% in each case.
For `Cc1ncsc1-c1ccc([C@H](C)NC(=O)[C@@H]2C[C@@H](O)CN2C(=O)[C@@H](c2cc(N3CCC(C(=O)N4CCC(c5ccc6c(c5)C(C)(C)c5nc(=O)c7c(Cl)cccc7n5-6)CC4)CC3)no2)C(C)C)cc1` [Compound B90, (2S,4R)-1-(2-(3-(4-(4-(4-chloro-7,7-dimethyl-5-oxo-5,7-dihydroindolo[1,2-a]quinazolin-9-yl)piperidine-1-carbonyl)piperidin-1-yl)isoxazol-5-yl)-3-methylbutanoyl)-4-hydroxy-N—((S)-1-(4-(4-methylthiazol-5-yl)phenyl)ethyl)pyrrolidine-2-carboxamide], in experiment [1], the DC50 was under 100 nM and the Dmax was over 90%. In addition, in experiment [2], the DC50 is under 100 nM and the Dmax was over 90%.
Take `CC(C)C(C(=O)N1C[C@H](O)C[C@H]1C(=O)N[C@@H](C)c1ccc(-c2ncnn2C)cc1)c1cc(OCCN2CCC(c3ccc4c(c3)C(C)(C)c3nc(=O)c5c(Cl)cccc5n3-4)CC2)no1` (stereo partly drawn) [Compound B75, (2S,4R)-1-(2-(3-(2-(4-(4-chloro-7,7-dimethyl-5-oxo-5,7-dihydroindolo[1,2-a]quinazolin-9-yl)piperidin-1-yl)ethoxy)isoxazol-5-yl)-3-methylbutanoyl)-4-hydroxy-N-((S)-1-(4-(1-methyl-1H-1,2,4-triazol-5-yl)phenyl)ethyl)pyrrolidine-2-carboxamide]: in experiment [1], the “SMARC A4 HT1080 HiBit Dmax(%)” value is “D (D (<50% degradation))” and the DC50 was 100 to 500 nM. Also, in experiment [2], the “SMARC A2 HT1080 HiBit Dmax (%)” value is “B (B (70-90% degradation))” and the DC50 was 100 to 500 nM.
As for `Cc1ncsc1-c1ccc([C@H](C)NC(=O)[C@@H]2C[C@@H](O)CN2C(=O)[C@@H](n2cc([C@H]3CC[C@H](CN4CCC(c5ccc6c(c5)-n5c(nc(=O)c7c(Cl)cccc75)C6(C)C)CC4)CC3)nn2)C(C)(C)C)cc1` [Compound B51, (2S,4R)-1-((S)-2-(4-((1r,4S)-4-((4-(4-chloro-7,7-dimethyl-5-oxo-5,7-dihydroindolo[1,2-a]quinazolin-10-yl)piperidin-1-yl)methyl)cyclohexyl)-1H-1,2,3-triazol-1-yl)-3,3-dimethylbutanoyl)-4-hydroxy-N-((S)-1-(4-(4-methylthiazol-5-yl)phenyl)ethyl)pyrrolidine-2-carboxamide], in experiment [1], the DC50 is under 100 nM and the Dmax is 70 to 90%. Moreover, in experiment [2], the DC50 is under 100 nM and the Dmax is over 90%.
For `CC(=O)c1ccc([C@H](C)NC(=O)[C@@H]2C[C@@H](O)CN2C(=O)[C@H](C(C)C)n2cc([C@H]3CC[C@H](CN4CCC(c5ccc6c(c5)-n5c(nc(=O)c7c(Cl)cccc75)C6(C)C)CC4)CC3)nn2)cc1` [Compound B134, (2S,4R)-N-((S)-1-(4-acetylphenyl)ethyl)-1-((S)-2-(4-((1r,4S)-4-((4-(4-chloro-7,7-dimethyl-5-oxo-5,7-dihydroindolo[1,2-a]quinazolin-10-yl)piperidin-1-yl)methyl)cyclohexyl)-1H-1,2,3-triazol-1-yl)-3-methylbutanoyl)-4-hydroxypyrrolidine-2-carboxamide], the DC50 in experiment [1] and in experiment [2] was under 100 nM throughout. In addition, the results for the Dmax in experiment [1] and in experiment [2] were 50 to 69% and over 90%, respectively.
With `Cc1cc(C(C(=O)N2C[C@H](O)C[C@H]2C(=O)N[C@@H](CCN2CCC(c3cccc4c3C(C)(C)c3nc(=O)c5c(Cl)cccc5n3-4)CC2)c2ccc(-c3scnc3C)cc2)C(C)C)on1` (stereo partly drawn) [Compound B165, (2S,4R)-N-((S)-3-(4-(4-chloro-7,7-dimethyl-5-oxo-5,7-dihydroindolo[1,2-a]quinazolin-8-yl)piperidin-1-yl)-1-(4-(4-methylthiazol-5-yl)phenyl)propyl)-4-hydroxy-1-(3-methyl-2-(3-methylisoxazol-5-yl)butanoyl)pyrrolidine-2-carboxamide], in experiment [1], the “SMARC A4 HT1080 HiBit Dmax(%)” value is reported as “C (C (50-69% degradation))” and the DC50 lay in the range of 100 to 500 nM. Besides, in experiment [2], the “SMARC A2 HT1080 HiBit Dmax (%)” value is on record as “C (C (50-69% degradation))” and the DC50 lay within 100 to 500 nM.
On to `Cc1cc(C(C(=O)N2C[C@H](O)C[C@H]2C(=O)N[C@@H](C)c2ccc(-c3scnc3C#CCN3CCC(c4cccc5c4C(C)(C)c4nc(=O)c6c(Cl)cccc6n4-5)CC3)cc2)C(C)C)on1` (stereo partly drawn) [Compound B150, (2S,4R)-N-((S)-1-(4-(4-(3-(4-(4-chloro-7,7-dimethyl-5-oxo-5,7-dihydroindolo[1,2-a]quinazolin-8-yl)piperidin-1-yl)prop-1-yn-1-yl)thiazol-5-yl)phenyl)ethyl)-4-hydroxy-1-(3-methyl-2-(3-methylisoxazol-5-yl)butanoyl)pyrrolidine-2-carboxamide], for which, in experiment [1], the DC50 was in the range of 100 to 500 nM and the Dmax was under 50%. In experiment [2], the DC50 was under 100 nM and the Dmax lay within 50 to 69%.
In the same order, the values of `Cc1ncsc1-c1ccc([C@H](C)NC(=O)[C@@H]2C[C@@H](O)CN2C(=O)[C@@H](n2cc(C34CC(C(=O)N5CCC(c6ccc7c(c6)-n6c(nc(=O)c8c(Cl)cccc86)C76CCCCC6)CC5)(C3)C4)nn2)C(C)(C)C)cc1` [Compound B169] are under 100 nM, 50 to 69%, under 100 nM and 70 to 90%.
In the same order, the values of `Cc1ncsc1-c1ccc([C@H](C)NC(=O)[C@@H]2C[C@@H](O)CN2C(=O)[C@@H](c2cc(OCCN3CCC(c4ccc5c(c4)-n4c(nc(=O)c6c(Cl)cccc64)C5(C)C)CC3)no2)C(C)C)cc1` [Compound B32, (2S,4R)-1-((R)-2-(3-(2-(4-(4-chloro-7,7-dimethyl-5-oxo-5,7-dihydroindolo[1,2-a]quinazolin-10-yl)piperidin-1-yl)ethoxy)isoxazol-5-yl)-3-methylbutanoyl)-4-hydroxy-N-((S)-1-(4-(4-methylthiazol-5-yl)phenyl)ethyl)pyrrolidine-2-carboxamide] are under 100 nM, under 50%, under 100 nM and over 90%.
In the same order, the values of `Cc1ncsc1-c1ccc([C@H](CN2CCOCC2)NC(=O)[C@@H]2C[C@@H](O)CN2C(=O)[C@@H](n2cc([C@H]3CC[C@H](S(=O)(=O)N4CCC(c5ccc6c(c5)-n5c(nc(=O)c7c(Cl)cccc75)C65CCCCC5)CC4)CC3)nn2)C(C)(C)C)cc1` [Compound B118, (2S,4R)-1-((S)-2-(4-((1r,4S)-4-((4-(4′-chloro-5′-oxo-5′H-spiro[cyclohexane-1,7′-indolo[1,2-a]quinazolin]-10′-yl)piperidin-1-yl)sulfonyl)cyclohexyl)-1H-1,2,3-triazol-1-yl)-3,3-dimethylbutanoyl)-4-hydroxy-N-((R)-1-(4-(4-methylthiazol-5-yl)phenyl)-2-morpholinoethyl)pyrrolidine-2-carboxamide] are 501 to 1000 nM, 50 to 69%, under 100 nM and 70 to 90%.
On to `Cc1ncsc1-c1ccc([C@H](C)NC(=O)[C@@H]2C[C@@H](O)CN2C(=O)[C@@H](NC(=O)CCCCn2cc(-c3ccc4c(c3)C(C)(C)c3nc(=O)c5c(Cl)cccc5n3-4)cn2)C(C)(C)C)cc1` [Compound B87, (2S,4R)-1-((S)-2-(5-(4-(4-chloro-7,7-dimethyl-5-oxo-5,7-dihydroindolo[1,2-a]quinazolin-9-yl)-1H-pyrazol-1-yl)pentanamido)-3,3-dimethylbutanoyl)-4-hydroxy-N-((S)-1-(4-(4-methylthiazol-5-yl)phenyl)ethyl)pyrrolidine-2-carboxamide], for which, in experiment [1], the DC50 is over 1000 nM and the Dmax was under 50%. For the same compound, in experiment [2], the DC50 was in the range of 100 to 500 nM and the Dmax lay within 50 to 69%.
In the same order, the values of `Cc1ncsc1-c1ccc(C2(NC(=O)[C@@H]3C[C@@H](O)CN3C(=O)[C@@H](n3cc([C@H]4CC[C@H](CN5CCC(c6ccc7c(c6)-n6c(nc(=O)c8c(Cl)cccc86)C7(C)C)CC5)CC4)nn3)C(C)(C)C)CNC2)cc1` [Compound B113, (2S,4R)-1-((S)-2-(4-((1r,4S)-4-((4-(4-chloro-7,7-dimethyl-5-oxo-5,7-dihydroindolo[1,2-a]quinazolin-10-yl)piperidin-1-yl)methyl)cyclohexyl)-1H-1,2,3-triazol-1-yl)-3,3-dimethylbutanoyl)-4-hydroxy-N-(3-(4-(4-methylthiazol-5-yl)phenyl)azetidin-3-yl)pyrrolidine-2-carboxamide] are 501 to 1000 nM, under 50%, 100 to 500 nM and over 90%.
